Laboratory results as given in publication PMC12651750 (Cells, 2025).

Key:
[1] = system: Jurkat cells; test: Cell cycle analysis (propidium iodide, flow cytometry); format: cell-based, human; details: 48 h
Method: Jurkat cells were cultured to the appropriate density. Jurkat cells were stimulated with three concentration gradients of 0.2 µM, 1 µM, and 5 µM of NBU-2, and DMSO (as a control) for 48 h. Cells were collected, fixed overnight using pre-cooled 70% ethanol, and then stained according to the instructions. Subsequently, flow cytometry was used to detect using flow cytometry.

[2] = system: Jurkat cells; test: Western blot of protein levels; format: cell-based, human; details: 0.2, 1, 5 µM, 48 h
Method: Jurkat cells were stimulated with NBU-2 (0.2 µM, 1 µM, 5 µM) and DMSO, respectively, for 48 h. Cells were lysed by the addition of appropriate RIPA Lysis Buffer (containing protease inhibitors and phosphatase inhibitors), and protein concentrations were determined using the BCA assay. Centrifuge the above cell lysates at 12,000× g for 10 min at 4 °C and retain the supernatant. After diluting the samples to the same concentration with lysate, add the corresponding volume of SDS-PAGE protein uploading buffer (5×), and the proteins were denatured by boiling at 100 °C for 10 min. According to the molecular weight of the target protein, we selected the corresponding concentration of the gel for electrophoresis. After electrophoresis, the proteins on the gel were transferred to the PVDF membrane. The transfer time could be adjusted appropriately according to the molecular weight of the proteins. Subsequently, the corresponding protein primary antibody was taken, and the corresponding antibody was diluted according to the instructions and incubated overnight at 4 °C on a shaker. The following day, it was conjugated to the secondary antibody. The protein bands were then visualized under the ChemiDoc system using the chemiluminescent developer. Antibodies HDAC1 (Cat#10197-1-AP), HDAC6 (Cat#12834-1-AP), Bax (Cat#60267-1-1), BAD (Cat#10435-1-AP), Bcl-2 (Cat#12789-1-AP), Bcl-xl (Cat#10783-1-AP), Caspase3/P17/P19 (Cat#19677-1-AP), Caspase8/P43/P18 (Cat#13423-1-AP), and P21 (Cat#10355-1-AP) were purchased from Wuhan, China. Antibody actin (Cat#21338-1) was purchased from SAB, China. Acetyl-Histone H3 (Cat#AF1684), Acetyl-Histone H4 (Cat#AJ4218), Phos-AKT1 (Cat#AF1546), CDK4 (Cat#AF2515), Cyclin D1 (Cat#AF0126), and Phos-RB1 (Cat#AF1135) were purchased from Beyotime International, Nantong, China. H3 (Cat#A2348) and Caspase3 (A19653) were purchased from ABclonal, Wuhan, China. Cleaved-Caspase9 (Cat#52873T) was purchased from Cell Signal Technology, Danvers, MA, USA.

[3] = system: Jurkat cells; test: Reactive oxygen species assay (DCFH-DA probe); format: cell-based, human; details: 0.2, 1, 5 µM, 48 h; concentration-dependent
Method: Cells were treated with 0.2 µM, 1 µM, 5 µM, and DMSO for 48 h. Then the probes were loaded using serum-free medium and incubated for 20 min at 37 °C in a cell incubator. Next, the cells were collected.

[4] = system: Jurkat cells; test: Whole proteomic analysis (mass spectrometry); format: cell-based, human
Method: The cell cultivation was completed in a 60 mm plate; the number of cells accounted for roughly 30–40% of the orifice. We stimulated cells with 1 μM and 5 μM of NBU-2 and 0.1% DMSO. […] After 48 h, the cells were collected, about 200 μL of NP-40 Lysis Buffer containing phosphatase inhibitor and protease inhibitor was added, and the cells were lysed to release the proteins. Measure the protein concentration of each group of samples using the BCA protein quantification method. The disulfide bonds in the protein structure were reduced using TCEP and then alkylated with IAA. Samples were added to a centrifugal filtration unit with an ultrafiltration membrane, and proteins were digested using trypsin 2 times, the first time for 4 h and the second time overnight with the addition of an appropriate amount of trypsin. […] Samples were reconstituted using 0.1% formic acid, and approximately 1 μg of protein was taken for detection using mass spectrometry.
Mass spectrometry analysis was performed using an Orbitrap Fusion Lumos mass spectrometer (Thermo Fisher Scientific, Shanghai, China). Chromatographic separations were performed on an Acclaim PepMap C18 column using a 60 min linear gradient elution program: the proportion of mobile phase B (acetonitrile containing 0.1% formic acid) was increased from 2% to 35%, and the flow rate was maintained at 250 nL/min. […]

[5] = biological target: HDAC1 (Homo sapiens, UniProt Q13547); test: In vitro HDAC enzymatic inhibition assay (HDAC kit, fluorescence)
Chain of HDAC1 (Q13547 whole entry): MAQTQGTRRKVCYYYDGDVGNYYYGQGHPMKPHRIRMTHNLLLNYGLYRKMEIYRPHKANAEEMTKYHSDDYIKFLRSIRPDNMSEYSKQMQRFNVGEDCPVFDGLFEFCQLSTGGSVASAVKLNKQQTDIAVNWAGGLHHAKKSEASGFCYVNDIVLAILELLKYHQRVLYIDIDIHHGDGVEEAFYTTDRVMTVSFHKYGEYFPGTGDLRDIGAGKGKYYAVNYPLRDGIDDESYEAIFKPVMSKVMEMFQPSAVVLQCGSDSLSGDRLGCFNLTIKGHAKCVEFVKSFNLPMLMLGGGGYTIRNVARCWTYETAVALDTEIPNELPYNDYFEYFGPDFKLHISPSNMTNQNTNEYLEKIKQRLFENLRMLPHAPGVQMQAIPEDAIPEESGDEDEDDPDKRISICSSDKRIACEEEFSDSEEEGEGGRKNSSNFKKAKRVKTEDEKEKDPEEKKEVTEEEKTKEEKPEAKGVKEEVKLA
Method: Enzymatic assays were performed by Shanghai ChemPartner according to the HDAC kit protocol. […] Fluorescence was recorded at 355 nm excitation and 460 nm emission on a Synergy MX reader (PerkinElmer Life Sciences, Boston, MA, USA). IC50 values were derived from dose–response curves.

Q: `Cc1cccc2c(=O)c3c(NCCCCCC(=O)NO)ccc([N+](=O)[O-])c3[nH]c12` [NBU-2, N-hydroxy-6-((5-methyl-4-nitro-9-oxo-9,10-dihydroacridin-1-yl)amino)hexanamide] was tested. Which “Percentage of cells in G0/G1 phase (2N)” value ([1]; 0.2 μM) did it give?
A: Its value is 35.3%.

Q: What about the “Percentage of cells in G0/G1 phase (2N)” value ([1]; 1 μM) of the same compound?
A: Its value is 40.4%.

Q: What about the “Percentage of cells in G0/G1 phase (2N)” value ([1]; 5 μM) of the same compound?
A: The value was 57.9%.

Q: What about the Ac-H4 level [2] of the same compound?
A: The Ac-H4 level was “no significant change”.

Q: And the BAD expression [2]?
A: Its BAD expression is “unaffected”.

Q: And the Bcl-2 expression [2]?
A: Its Bcl-2 expression is “reduced”.

Q: What about the Bcl-XL expression [2] of the same compound?
A: The Bcl-XL expression was “reduced”.

Q: What about the “Caspase-3 (prototype) expression” value [2] of the same compound?
A: The value was “did not affect”.

Q: And the “Caspase-8 (prototype) expression” value [2]?
A: Its value is “did not affect”.

Q: What about the “Caspase-9 (prototype) expression” value [2] of the same compound?
A: Its value is “did not affect”.

Q: And the “HDAC1 protein expression level” value [2]?
A: The value was “not affected”.

Q: And the “HDAC6 protein expression level” value [2]?
A: The value was “not affected”.

Q: What about the “Protein level of p-Akt (Ser473)” value [2] of the same compound?
A: The value was “significantly reduced”.

Q: And the “Total histone H3” value [2]?
A: The value was “not affected”.

Q: And the CDK4 expression ([2]; concentration-dependent)?
A: Its CDK4 expression is “inhibited”.

Q: And the “Cyclin D1 expression” value ([2]; concentration-dependent)?
A: Its value is “inhibited”.

Q: What about the “Intracellular Ac-H3 protein level” value ([2]; concentration-dependent) of the same compound?
A: Its value is “significantly increased”.

Q: What about the p21 expression ([2]; concentration-dependent) of the same compound?
A: Its p21 expression is “increased”.

Q: What about the BAX expression ([2]; with concentration) of the same compound?
A: The BAX expression was “increased”.

Q: And the Cleaved-Caspase-3 expression ([2]; with increasing concentration)?
A: The Cleaved-Caspase-3 expression was “increased”.

Q: And the Cleaved-Caspase-9 expression ([2]; with increasing concentration)?
A: The Cleaved-Caspase-9 expression was “increased”.

Q: And the p-Rb expression ([2]; with increasing concentration)?
A: The p-Rb expression was “decreased”.

Q: What about the “Levels of reactive oxygen species relative to DMSO” value [3] of the same compound?
A: Its value is “significantly increased”.

Q: And the “Total Akt protein (proteomics)” value ([4]; 1 µM and 5 µM vs DMSO, p > 0.05)?
A: Its value is “did not show any significant change”.

Q: And the “Expression of Rb (proteomics)” value ([4]; 48 h)?
A: The value was “not affected”.

Q: And the IC50 [5]?
A: Its IC50 is 7.75 ± 0.57 nM.
